Tested on: SNU-16
Assay: Western blot analysis of DNA damage (H2A.X Phospho-Ser139)
Assay type: cell-based
Details: 8 hours, KM4008HV2LV3 10 μg/mL, H2O2 50 μM
Method: Anti-phospho-Histone H2A.X Ser139, clone JBW301 (Millipore Catalog No. 05-636) as a primary antibody and anti-mouse IgG, HRP-linked antibody (CST Catalog No. 7076) as a secondary antibody were used.
SNU-16 was seeded in 10 mL of the assay medium at a density of 2×10^4 cells/mL, and cultured at 37° C. under the conditions of 5% CO2 for 24 hours. Then, KM4008HV2LV3 (final concentration of 10 μg/mL), the solvent solution of antibody, or hydrogen peroxide (H2O2) (final concentration of 50 μM) was added. The cells were left at 37° C. under the conditions of 5% CO2 for 8 hours, and the suspending cells were recovered together with the culture supernatant.
The adherent cells were washed with D-PBS(−) (manufactured by Nacalai Tesque, Catalog No. 14249-95), and then 1.5 mL of TrypLE select (manufactured by Invitrogen, Catalog No. 12563-011) was added and left at 37° C. under the conditions of 5% CO2 for 5 minutes for detachment, and then mixed with the suspending cells recovered in advance to be used in the subsequent manipulations. […]
The cell lysate thus obtained was left on ice for 15 minutes, followed by centrifugation at 15,000 rpm for 15 minutes. The protein concentration in the supernatant thus obtained was determined using a BCA protein assay kit (manufactured by Pierce, Catalog No. 23225). […]

OO [H2O2, hydrogen peroxide]
Phosphorylation signals of H2A.X Ser139 (Western blot) compared to solvent-treated cells: increased

— US20140134730A1, “METHOD FOR INHIBITING CELL PROLIFERATION BY OXIDATIVE STRESS” (KYOWA HAKKO KIRIN CO., LTD, priority 2012, published 2014)
